What was measured:
[1] = Stability of peptide to UV sterilization (HPLC retention, microsequencing); assay type: physicochemical; conditions: UV 5 minutes, suspension in 0.9% saline
Experimental: Intratesticular injection of occludin peptide and histological analysis of the testis. To assess the in vivo effects of the occludin peptide on spermatogenesis, peptide was administered to testes of adult rats by direct intratesticular injection as follows. Peptide was suspended in 0.9% sterile saline, sterilized by exposure to UV for 5 minutes. […] First, UV treated peptide retained the same retention time on reverse-phase HPLC using a Vydac C18 column (4.6×250 mm, i.d.) (Cheng et al., 1998; Cheng et al., 1989) when compared to peptide prior to the UV treatment. Second, the primary sequence of the UV-trated peptide remain unaltered when direct protein microsequencing was performed as described (Mruk and Cheng, 1990; Cheng et al., 1998; Cheng et al., 1989). Adult rats weighing between 250 and 300 g body weight were anesthetized with Metofane® before treatment. Rats received either 300 μl of 0.9% sterile saline (vehicle control), no treatment (control), or 1.5-10 mg of occludin peptide suspended in 300 μl of 0.9% sterile saline intratesticularly. The right testis of an animal received the peptide or vehicle and the left testis of the same animal was not treated and was used as a control. Peptide or vehicle was administered at 3 sites/testis with about 100 μl sample per site essentially as previously described (Grima et al., 1998; Eng et al., 1994). […]

[2] = tested on: inter-Sertoli TJ-permeability barrier; experiment: Transepithelial electrical resistance (TER) across Sertoli cell epithelia; assay type: cell-based, rat
Experimental: Preparation of Sertoli cell cultures. Primary Sertoli cells were isolated from 20-day-old Sprague-Dawley rat testes as previously described (Cheng et al., 1986). For low cell density cultures, Sertoli cells were plated at 5×10^4 cells/cm^2 in 100-mm Petri dishes [approximately 4.5×10^6 cells/100-mm dish/9 ml Ham's F12 Nutrient Mixture/Dulbecco's Modified Eagle's Medium (F12/DMEM, 1:1, vol/vol, Life Technologies, Inc.); F12/DMEM were supplemented with 15 mM HEPES, 1.2 g/L sodium bicarbonate, 10 μg/ml bovine insulin, 5 μg/ml human transferrin, 2.5 ng/ml EGF, 20 mg/L gentamicin and 10 μg/ml bacitracin. Sertoli cells cultured under low cell density formed monolayer epithelia without the assembly of inter-Sertoli TJs when monitored by TER measurement (Grima et al., 1998). However, both adherens junctions (AJs) and gap junctions (GJs) were formed (Chung et al., 1999). For high cell density cultures, Sertoli cells were plated on Matrigel™ (Collaborative Biochemical Products, Belford, Mass.)-coated (diluted 1:7 with F12/DMEM, vol/vol) 24-well dishes (effective surface area, approximately 1.88 cm^2, with 2 ml F12/DMEM per well) at a density of 0.6-3×10^6 cells/cm^2 as previously described (Grima et al., 1998) to allow formation of TJs, AJs and GJs, mimicking Sertoli cells found in vivo when assessed by various criteria (Grima et al., 1992). Cell cultures were incubated in a humidified atmosphere of 95% air and 5% CO2 (vol/vol) at 35° C. and TER readings were recorded 24 hr later and designated as cultures at day 1.
Assessing the integrity of the inter-Sertoli TJ-permeability barrier by measuring the transepithelial electrical resistance (TER) across Sertoli cell epithelia To assess the effects of occludin peptide on the assembly of inter-Sertoli TJs, Sertoli cells isolated from 20-day-old rat testes were cultured at 1.2×10^6 cells/cm^2 to allow the assembly of inter-Sertoli TJs, and the TER, which is a quantitative measurement of TJ integrity, across the Sertoli cell epithelia was quantified as previously described (Wong et al., 2000; Grima et al. 1998). Cells were plated on Matrigel™ (1:7)-coated HA filters in the apical chamber (Millipore, Bedford, Mass.) (25, 28). Great care was taken so that air bubbles were not trapped between Sertoli cell aggregates, which is the major obstacle to obtain steady TER across the Sertoli cell epithelia since air bubbles create physical pores between adjacent Sertoli cells. TER across the Sertoli cell epithelia at specific time points was determined by a Millicell electrical resistance system as described (Grima et al., 1998; Cheng and Chung, 2001). The resistance in ohm was multiplied by the effective surface area of the bicameral unit (approximately 0.6 cm^2) to yield the area resistance (ohm.cm^2). The net value of electrical resistance was then computed by substracting the background, which was measured on the Matrigel-coated cell-free chambers, from values of Sertoli cell-plated chambers. To minimize temperature-induced fluctuations during TER measurement, cultures were stabilized at room temperature for 20-30 minutes prior to recording TER across the Sertoli cell epithelia. Synthetic occludin peptide at 0.2-4 μM was included in the basal (0.5 ml F12/DMEM containing 0.03% DMSO, vol/vol, DMSO was used to solubilize the peptide in medium) and apical (0.5 ml F12/DME containing 0.03% DMSO, vol/vol) chambers of the bicameral units 24 hours after freshly isolated Sertoli cells were plated onto Matrigel-coated units (day 1). […]

Sertoli cells = experiment: Trypan blue dye-exclusion cell viability test; assay type: cell-based, rat; conditions: peptide-treated cultures (data not shown)
[3] = tested on: blood-testis barrier (BTB); experiment: Blood-testis barrier integrity by micropuncture, [125I]-BSA in STF and RTF; assay type: in vivo, rat; conditions: for effect on BTB integrity: intratesticular injection 1.5 mg/testis
Experimental: Assessing the occludin-peptide induced disruption of the blood-testis barrier (BTB) by micropuncture techniques.
Briefly, 5 μg of BSA (Sigma, RIA grade, Mr 68 kDa) was radioiodinated by Iodogen (Fraker et al., 1978) using 1 mCi of [^125I]-sodium iodide (Amersham Pharmacia Biotech) as described (Cheng et al., 1983).
Detection of [^125]-BSA in seminiferous tubular fluid (STF) and rete testis fluid (RTF). 2, 4, 6, and 12-week after an intratesticular administration of 1.5 mg of either occludin or myotubularin peptide/testis as described above (administered at 3 sites to the right testis) where the left testis of the same animal was used as a control. Rats (n=4-6 rats per time point, approximately 250 gm b.w. at the time of peptide treatment) were anesthetized with ketamine HCl (Fort Dodge Laboratories, Inc., Fort Dodge Iowa) at 60 mg/kg b.w. Micropuncture was performed essentially as described (Turner et al., 1984; Stahler et al., 1991). Briefly, testes were exposed through an abdominal incision, and the efferent ducts were ligated with surgical silk thread. Testes were then returned to the scrotum, wound cleansed with 70% ethanol, surgically closed and animals were allowed to recover. Twenty-four hours after efferent duct ligation, rats were anesthetized by ketamine HCl, bilateral nephrectomy was performed to prevent renal excretion of [^125I]-BSA, and approximately 6×10^6 cpm of [^125I]-BSA was infused into the rat via jugular vein. Two hours after infusion, testes were removed, RTF and STF were collected as described (Turner et al, 1984; Stahler et al., 1991) for radioactivity determination in a γ-counter. The left testis from the same animal without receiving either the occludin or myotubularin peptide served as a control, and both STF and RTF were also collected for radioactivity determination to assess the integrity of the BTB.

[4] = tested on: spermatogenesis in adult rat testis; experiment: Intratesticular injection: testicular weight and histological analysis of the testis; assay type: in vivo
Experimental: Intratesticular injection of occludin peptide and histological analysis of the testis. To assess the in vivo effects of the occludin peptide on spermatogenesis, peptide was administered to testes of adult rats by direct intratesticular injection as follows. Peptide was suspended in 0.9% sterile saline, sterilized by exposure to UV for 5 minutes. […] First, UV treated peptide retained the same retention time on reverse-phase HPLC using a Vydac C18 column (4.6×250 mm, i.d.) (Cheng et al., 1998; Cheng et al., 1989) when compared to peptide prior to the UV treatment. Second, the primary sequence of the UV-trated peptide remain unaltered when direct protein microsequencing was performed as described (Mruk and Cheng, 1990; Cheng et al., 1998; Cheng et al., 1989). Adult rats weighing between 250 and 300 g body weight were anesthetized with Metofane® before treatment. Rats received either 300 μl of 0.9% sterile saline (vehicle control), no treatment (control), or 1.5-10 mg of occludin peptide suspended in 300 μl of 0.9% sterile saline intratesticularly. The right testis of an animal received the peptide or vehicle and the left testis of the same animal was not treated and was used as a control. Peptide or vehicle was administered at 3 sites/testis with about 100 μl sample per site essentially as previously described (Grima et al., 1998; Eng et al., 1994). In another control group, rats were injected with a synthetic 22-amino acid peptide of NH2—[…]—COOH based on a known Sertoli cell protein, rat myotubularin (rMTM) (Li et al., 2000; Li et al., 2001), which had no sequence homology with occludin. Three rats were used in each treatment group and rats were sacrificed by CO2 asphyxiation at specific time points. Testes were removed immediately and fixed in 10% neutral buffered formalin. Testes were embedded in paraffin, and dehydrated in graded ethanol. For morphological analysis, 5 μm sections were cut and stained with hematoxylin and eosin. About 50 sections were examined at different sites for each testis using an Olympus BX40 microscope (Tokyo, Japan), interfaced to an Olympus PM-30 Exposure Control Unit.
Following HPLC purification, occludin or myotubularin peptide was suspended in 0.9% sterile saline and sterilized under UV for 5 minutes. Each rat in the experimental group received an intratesticular injection of 300 μl of saline containing either 0.15 mg or 1.5 mg of the corresponding purified peptide. The peptide suspension was distributed in each testis at 3 sites (approximately […] per site) as described in Materials and Methods and detailed elsewhere (Grima et al., 1992; Eng et al., 1994). […] FIGS. 6D-F are another control set of testes where rats received an intratesticular injection of the myotubularin peptide at 10 (FIG. 6D), 23 (FIG. 6E), and 40 days (FIG. 6F) post-treatment.

[5] = 1.5 mg/testis, 2, 4, 6 and 12 weeks, vs rats without peptide

Row | Substance | effect of UV treatment on peptide structure [1] | decline in TER compared to untreated controls ([2]; 4 μM, days 4-5) | toxicity to Sertoli cells ([2]; concluded from reversibility after peptide removal) | change in TER across Sertoli cell epithelia ([2]; peptide 0.2-4 μM added 24 hours after isolation, 1.2×10^6 cells/cm^2 (FIG. 4A)) | time until TER reading indistinguishable from controls after peptide removal (TJ barrier reassembly) ([2]; peptide removed on day 5 by two washes (FIG. 4B)) [days] | cell viability versus control cultures (Sertoli cells) | effect on BTB integrity [3] | reduction of seminiferous tubular diameter ([4]; 27 days, compared to control, vehicle or myotubularin peptide testes) | time for almost full recovery of testes ([4]; 68 days versus 27 days post-treatment) [days] | germ cell repopulation ([4]; after 27 days post treatment) | appearance of the testis and the epididymis ([4]; after intratesticular injection) | elongated spermatids in seminiferous epithelium ([4]; between 8 and 16 days after treatment) | germ cells in epithelium, virtually all tubules examined ([4]; by 27 days after intratesticular injection) | morphology of tubules ([4]; by 47 days post treatment) | morphology of the seminiferous epithelium ([4]; by 68 days post treatment) | testicular weight ([4]; within 2 weeks after intratesticular injection of 0.15 mg or 1.5 mg, vs no treatment, vehicle or myotubularin peptide (FIG. 5)) | effects to perturb the inter-Sertoli TJ barrier ([2]; 4 μM (data not shown)) | radioactivity detected in RTF [3, 5] | radioactivity detected in STF [3, 5]
1 | H-GSQIYTICSQFYTPGGTGLYVD-OH [occludin peptide] | did not alter its structure | approximately 50% | non-toxic | dose-dependent decline in TER | 3 to 4 | no apparent differences | disruption of the BTB | 20-30% | ≤ 40 | began to repopulate in the epithelium | appeared normal | began to deplete from the epithelium | Massive depletion of germ cells | spermatocytes were clearly visible in all the tubules examined | indistinguishable from control rats | reduction in testicular weight | – | – | –
2 | NH2—TKVNERYELCDTYPALLAVPAN—COOH (H-TKVNERYELCDTYPALLAVPAN-OH) [myotubularin peptide] | – | – | – | – | – | – | failed to induce disruption of the BTB | – | – | – | – | – | – | – | – | – | no apparent effects | indistinguishable from control rats | indistinguishable from control rats

Reference: US20040242476A1, “Male contraceptives” (The Population Council, Inc, priority 2001, published 2004)
